Where “and” joins values, the source holds several entries; their conditions need not be identical. Identical values can stand only once.

Common to all, as to assay type: in vivo, human
The subject of data set [1] is adults with histocytologically proven malignant pleural effusion. Put plainly: Alveolar to arterial gradient in the partial pressure of oxygen (arterial blood gases breathing air). An excerpt: Arterial blood gases breathing air were taken on days 1 and 3 of the first week (pre and post control saline), and on days 7 and 9 (pre and post LTA-T) to identify any impaired gas exchange (which is a problem with talc pleurodesis). The efficiency of lung oxygen exchange was quantified from the change in the alveolar to arterial gradient for the partial pressure of oxygen calculated from these blood gas samples, using standard methods.
(§1) Changes in continuous variables were compared to baseline using a paired t-test (SPSS version 12.0).

The test system of data set [2] is malignant pleural effusion. The experiment in a line: Long-term pleural fluid control (pleurodesis success, need for late therapeutic drainage). The protocol:
Over the next 7 days (days 7-14), daily pleural fluid volume drainage and pleural fluid cytology for malignant cells was performed unless pleural fluid flow ceased. On day 14, the intra-pleural catheter was flushed and closed (but left in situ) and not used again for the duration of the study unless recurrent pleural fluid caused breathlessness requiring treatment by fluid drainage.
(§2) Patient symptoms, performance status, radiographic pleural fluid recurrence (chest radiograph), adverse events and the clinical need for further pleural fluid drainage was assessed on days 22, 43, 64, 85. Where further fluid drainage was required, the time from the administration of LTA-T to first drainage was recorded. Those with recurrent pleural fluid were offered sterile talc pleurodesis (as standard care). All patients were followed up to death.
Long-term pleural fluid control was assessed by noting which patients required late therapeutic (>500 mls) pleural fluid drainage from their indwelling catheter in association with symptoms (excluding the subject not capable of achieving pleurodesis due to trapped lung). […] Between day 14 (when the indwelling catheter was first locked closed) and 1 month, 3 further patients received one therapeutic fluid drainage (pleurodesis success from day 14 9/12 (75%)). In those patients receiving a dose >750 mcg of intrapleural LTA-T, 6/7 required no therapeutic drainage at 1 month (86% pleurodesis success rate).

In data set [3] the test system is adults with histocytologically proven malignant pleural effusion. The experiment in a line: Phase I/IIa trial of intrapleural LTA-T: dose escalation and toxicity.
Description: The study was a phase I/IIa toxicity/non-randomised “proof of concept” efficacy trial. The protocol included administration of an intrapleural saline control followed by seven days pleural fluid production measurement prior to the administration of LTA-T to allow the assessment of any side-effects from LTA-T administration, and both acute pleural fluid production changes and the frequency of long-term pleurodesis efficacy after intrapleural LTA-T (see FIG. 1).
The subjects were adults (aged≧18) with histocytologically proven malignant pleural effusion requiring symptomatic treatment.
(§3) After informed consent, an indwelling pleural catheter (PleurX, Denver, Colo.) was placed in the pleural effusion and the pleural space fully drained. Markers of toxicity (clinical symptoms, blood parameters, performance status) were recorded daily on the first 14 days of the study and at intervals thereafter (FIG. 1).
After initial complete fluid drainage, 30 mls intra-pleural saline (saline control) was administered (day 1). The daily pleural fluid drainage was then recorded for seven days to quantify the rate of production of pleural fluid. On day seven, subjects received a single intra-pleural injection of LTA-T, according to the dosing schedule (table 1). The starting dose was 250 mcg. Patients remained in hospital for one night following LTA-T administration in a respiratory unit equipped for the care of acute respiratory failure to permit immediate adverse event monitoring.
as §2

The test system is the same in data set [4]. Put plainly: Peripheral blood white cell count change 24 hours after intrapleural administration. As to conditions: 7 subjects receiving >750 mcg; p=0.016, paired t-test. The procedure:
FIG. 3 illustrates the change in peripheral white cell count 24 hours after administration of intrapleural saline control or LTA-T, in all patients (FIG. 3a) and patients receiving 750 mcg LTA-T or more (FIG. 3b). Individual results are shown and mean and SD data for each group.
as §3, §1

On to lipoteichoic acid T [LTA-T], for which, in data set [1] (day 9, mean baseline (SD) 4.24 (2.92) kPa), the “Alveolar to arterial gradient for the partial pressure of oxygen, post LTA-T, mean (SD)” value is 4.88 (1.80) kPa. For the same substance, the Blood oxygen levels result in data set [1] (dose of 750 mcg to 1000 mcg) is on record as “no evidence of depressed blood oxygen levels”. In data set [1] (following LTA-T compared with saline control), the “Change in the alveolar to arterial gradient versus saline control” value is “similar”. In addition, the “Pleurodesis success from day 14” value in data set [2] (9/12, day 14 to 1 month, where pleurodesis technically achievable) turned out to be 75%. Further, in data set [2] (12/13 patients, trapped lung subject excluded), the “Patients not requiring any further therapeutic pleural drainage beyond 1 month from trial entry” value is on record as 92%. Further, the Pleurodesis outcome in data set [2] (dose of 750 mcg to 1000 mcg) is reported as “effective pleurodesis”. Besides, the “Pleurodesis success rate (no therapeutic drainage at 1 month)” value in data set [2] (patients receiving >750 mcg intrapleural, 6/7) was 86%. The “Toxicity at the therapeutic dose” value in data set [3] (750-1500 mcg intrapleural) is “mild with no consistent side effect profile”. Moreover, in data set [3] (dose of 750 mcg to 1000 mcg), the Pain entry is given as “almost no pain”. Moreover, the Side effects result in data set [3] (individual patients, single intrapleural dose 250 mcg) is “mild fever and Nil and Mild chest pain 2 hours post administration”; in data set [3] (individual patients, single intrapleural dose 375 mcg), “Nil (2×) and Mild headache and light headed 4 hours”; in data set [3] (individual patients, single intrapleural dose 750 mcg), “Nil and Mild back pain on inspiration after LTA-T, and Nausea, vomiting and pyrexia for 3 days”; in data set [3] (individual patients, single intrapleural dose 1500 mcg) it was “Nil”; in data set [3] (patient 14, single intrapleural dose 3000 mcg), “systemic inflammatory reaction”. In data set [3] (patient 10, 750 mcg, post LTA-T administration), the “Raised inflammatory markers (CRP)” value is on record as “inflammatory markers (CRP > 285)”. Further, the “Blood parameter, performance status or respiratory status toxicities” value in data set [3] (whole trial) is “No blood parameter, performance status or respiratory status toxicities were seen”. Besides, in data set [4], the “Difference in WCC change, LTA-T vs saline” value is given as 4.70 (3.77).

These data come from patent US8536139B2, “Compositions comprising lipoteichoic acid for use in treating pleural effusion or pneumothorax” (ISIS Innovation Limited, priority 2007, dated 2013).
